Source: patent US20230106506A1, “NOVEL PqsR INVERSE AGONISTS” (Helmholtz-Zentrum Fur Infektionsforschung GmbH, priority 2020, published 2023)
Where two headings read alike, the source gives them in different places.

Columns and labels:
PqsR = biological target: T1, PqsR (Pseudomonas aeruginosa, UniProt Q9I4X0); test: PqsR reporter gene assay in E. coli (β-galactosidase); type: cell-based
T1 construct: transfected with pEAL08-2 plasmid encoding pqsR under control of promoter tac; expressed in transfected cells; host or cells: Escherichia coli DH5alpha carrying pEAL08-2
Description: Inhibition of pqsR-dependent gene expression of test compounds was determined in an E. coli based β-galactosidase reporter gene assay. Escherichia coli DH5α was transfected with pEAL08-2 plasmid encoding pqsR under control of promoter tac and β-galactosidase reporter gene lacZ under control of promoter pqsA. Antagonistic effects of compounds were evaluated in the presence of/in competition to 50 nM PQS. A positive control was used to ensure the reliability of individual assays. First, PQS was diluted in methanol and added to the wells of a glass coated 96-deep-well plate, and the solvent was evaporated. Then, compounds were added in 5 μL DMSO to final concentrations of 0.001-10 μM. Overnight cultures of E. coli DH5a×pEAL08-2 were diluted 1:100 in LB medium with ampicillin (50 μg/ml) and incubated at 37° C. with shaking until it reached an OD600 of 0.2. Finally, 995 μL of culture was added to each well and the β-galactosidase activity was determined by ortho-nitrophenyl-β-galactoside conversion in permeabilized cells after a 2.5 h incubation period (37° C., 180 rpm). OD600, OD420, and OD550 were measured using POLARstar Omega (BMG Labtech, Ortenberg, Germany), and the activity was expressed as ratio of the slope of β-galactosidase activity between basal control (no PQS) and solvent control, IC50 values of antagonists were determined by variation of the concentration of the test compounds.

[1] = tested on: P. aeruginosa pyocyanin production; test: Pyocyanin assay; type: cell-based, P. aeruginosa strain PA14; details: Pseudomonas aeruginosa, PA14, 16 h, read-out: IC50-value towards pyocyanin production
Summary of the method: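 PA14 washed overnight culture in PPGAS diluted to OD600 0.02, grown 16 h with compound (37 °C, 200 rpm, 75% RH). Pyocyanin extracted with chloroform, back-extracted into 0.2 M HCl. OD520 measured and normalised to OD600.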

[2] = Metabolic stability in mouse liver microsomes (MLM); type: in vitro ADME; details: 1 μM compound, 0.5 mg/mL MLM, 1 mM NADPH, 37° C., read-out: half-life (t1/2) towards MLM
Summary of the method: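 Phase I stability: 1 μM compound incubated at 37° C with 0.5 mg/mL mouse liver microsomes and 1 mM NADPH, sampled at 0-30 min and quenched in acetonitrile. Remaining parent measured by HPLC-MS/MS to derive half-life.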

[3] = Kinetic turbidimetric aqueous solubility; type: physicochemical; details: aqueous buffer, kinetic from dmso stock; PBS buffer, final DMSO 2%, absorbance 620 nm; read-out: Kinetic Turbidimetric Aqueous Solubility at room temperature for 5 min
Description: Kinetic Turbidimetric Aqueous Solubility at room temperature for 5 min. […] Data was analyzed by fitting a four parameter sigmoidal function to the measured and normalized absorbances and AUC calculation providing access to Log S (decadic logarithm of the solubility).

[4] = tested on: production of signal molecules HHQ and PQS; details: cited from earlier work
[5] = tested on: P. aeruginosa pyocyanin production; details: in cellulo, literature value; read-out: inhibition of virulence factor pyocyanin production: IC50; cited from earlier work
[6] = tested on: virulence factor elastase; details: cited from earlier work

T1 sequence (Q9I4X0 whole entry): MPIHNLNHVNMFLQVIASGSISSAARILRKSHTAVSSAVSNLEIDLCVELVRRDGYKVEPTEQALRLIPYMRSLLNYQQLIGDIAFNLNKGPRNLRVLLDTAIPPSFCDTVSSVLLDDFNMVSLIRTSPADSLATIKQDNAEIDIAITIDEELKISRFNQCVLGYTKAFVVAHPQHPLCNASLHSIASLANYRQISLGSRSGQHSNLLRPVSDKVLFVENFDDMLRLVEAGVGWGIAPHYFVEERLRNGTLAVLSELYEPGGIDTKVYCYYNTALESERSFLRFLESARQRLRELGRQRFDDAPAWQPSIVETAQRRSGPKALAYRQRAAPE

Structure (SMILES): CC(C)Oc1ccc(-c2ncc(CNc3cc(-n4cncn4)nc(C(F)(F)F)c3)s2)cc1 [Compound 17, N-((2-(4-Isopropoxyphenyl)thiazol-5-yl)methyl)-2-(1H-1,2,4-triazol-1-yl)-6-(trifluoromethyl)pyridin-4-amine]
- IC50 (PqsR): 51 to 250 nM
- IC50 [1]: ≤ 100 nM
- half-life at 1 µM [2]: 1.02 to 1.67 h
- solubility at 5 min [3]: > 50 µM

Structure (SMILES): Cn1cc(-c2cc(NCc3cn(-c4ccc(Oc5ccccc5)cc4)nn3)cc(C(F)(F)F)n2)cn1 [Compound 10, 2-(1-Methyl-1H-pyrazol-4-yl)-N-((1-(4-phenoxyphenyl)-1H-1,2,3-triazol-4-yl)methyl)-6-(trifluoromethyl)pyridin-4-amine]
- IC50 (PqsR): ≤ 50 nM
- IC50 [1]: 201 to 500 nM
- half-life at 1 µM [2]: 0.5 to 1 h
- solubility at 5 min [3]: > 25 µM

Structure (SMILES): FC(F)(F)c1cc(NCc2cn(-c3ccc(Oc4ccccc4)cc3)nn2)cc(-n2cncn2)n1 [Compound 03, N-((1-(4-Phenoxyphenyl)-1H-1,2,3-triazol-4-yl)methyl)-2-(1H-1,2,4-triazol-1-yl)-6-(trifluoromethyl)pyridin-4-amine]
- IC50 (PqsR): ≤ 50 nM
- IC50 [1]: 201 to 500 nM
- half-life at 1 µM [2]: 1.02 to 1.67 h
- solubility at 5 min [3]: > 25 µM

Structure (SMILES): CC(C)Oc1ccc(-c2ncc(CNc3cc(-c4cc[nH]n4)nc(C(F)(F)F)c3)s2)cc1 [Compound 14, N-((2-(4-Isopropoxyphenyl)thiazol-5-yl)methyl)-2-(1H-pyrazol-3-yl)-6-(trifluoromethyl)pyridin-4-amine]
- IC50 (PqsR): 51 to 250 nM
- IC50 [1]: 201 to 500 nM
- half-life at 1 µM [2]: > 1.67 h
- solubility at 5 min [3]: > 10 µM

Structure (SMILES): Fc1ccccc1Oc1ccc(-n2cc(CNc3cc(-c4cn[nH]c4)nc(C(F)(F)F)c3)nn2)cc1 [Compound 04, N-((1-(4-(2-Fluorophenoxy)phenyl)-1H-1,2,3-triazol-4-yl)methyl)-2-(1H-pyrazol-4-yl)-6-(trifluoromethyl)pyridin-4-amine]
- IC50 (PqsR): ≤ 50 nM
- IC50 [1]: 101 to 200 nM
- half-life at 1 µM [2]: 0.5 to 1 h
- solubility at 5 min [3]: > 10 µM

Structure (SMILES): CC(C)Oc1ccc(-n2cc(CNc3cc(-c4cn[nH]c4)nc(C(F)(F)F)c3)nn2)cc1Cl [Compound 07, N-((1-(3-Chloro-4-isopropoxyphenyl)-1H-1,2,3-triazol-4-yl)methyl)-2-(1H-pyrazol-4-yl)-6-(trifluoromethyl)pyridin-4-amine]
- IC50 (PqsR): ≤ 50 nM
- IC50 [1]: ≤ 100 nM
- half-life at 1 µM [2]: 0.5 to 1 h
- solubility at 5 min [3]: > 25 µM

Structure (SMILES): CCCCCCCc1[nH]c2ccc([N+](=O)[O-])cc2c(=O)c1C(N)=O [2-heptyl-6-nitro-4-oxo-1,4-dihydroquinoline-3-carboxamide]
- reduction of HHQ production ([4]; at 15 μM): 54%
- reduction of PQS production ([4]; at 15 μM): 37%
- IC50 [5]: 2000 nM

Structure (SMILES): COC(=O)c1ccccc1N [methyl anthranilate]
- inhibition of PQS formation, active concentration [4]: millimolar concentrations
- inhibition of production of the virulence factor elastase, active concentration [6]: millimolar concentrations

Structure (SMILES): Nc1cccc(F)c1C(=O)O [Compound 6FABA]
- IC50 ([4]; QS inhibitor targeting the enzyme PqsA): ~100000 nM

Structure (SMILES): CC(C)Oc1ccc(-c2ncc(CNc3cc(-c4cnn(C)c4)nc(C(F)(F)F)c3)s2)cc1 [Compound 13, N-((2-(4-Isopropoxyphenyl)thiazol-5-yl)methyl)-2-(1-methyl-1H-pyrazol-4-yl)-6-(trifluoromethyl)pyridin-4-amine]
- IC50 (PqsR): 51 to 250 nM
- IC50 [1]: 201 to 500 nM
- half-life at 1 µM [2]: 0.5 to 1 h
- solubility at 5 min [3]: > 10 µM

Structure (SMILES): CC(C)Oc1ccc(-c2ncc(CNc3cc(-n4ccnc4)nc(C(F)(F)F)c3)s2)cc1 [Compound 15, 2-(1H-Imidazol-1-yl)-N-((2-(4-isopropoxyphenyl)thiazol-5-yl)methyl)-6-(trifluoromethyl)pyridin-4-amine]
- IC50 (PqsR): ≤ 50 nM
- IC50 [1]: ≤ 100 nM
- half-life at 1 µM [2]: 0.5 to 1 h
- solubility at 5 min [3]: > 10 µM

Structure (SMILES): CC(C)Oc1ccc(-c2ncc(CNc3cc(-c4cn[nH]c4)nc(C(F)(F)F)c3)s2)cc1 [Compound 11, N-((2-(4-Isopropoxyphenyl)thiazol-5-yl)methyl)-2-(1H-pyrazol-4-yl)-6-(trifluoromethyl)pyridin-4-amine]
- IC50 (PqsR): ≤ 50 nM
- IC50 [1]: ≤ 100 nM
- half-life at 1 µM [2]: 0.5 to 1 h
- solubility at 5 min [3]: > 10 µM
